Laboratory results reported in the supplement of paper PMC10307832.

Tests used:
Assay in all cases: relative viability (nuclei count vs DMSO), 5 days (fraction); higher = more cells survive
[1] = system: CAL-12T
In short: (§1)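 Five library-drug doses in √10 steps were combined with a fixed anchor-drug dose, or a single drug was given alone, by pin tool to lung cancer cell lines in 1536-well plates the day after seeding. Nuclei were stained and counted after 5 days. Relative viability is the nuclei count in treated wells over that in vehicle wells, taken as the median of duplicate plates.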

[2] = system: EKVX
In short: as §1

[3] = system: H3255
In short: as §1

[4] = system: HCC-15
In short: as §1

[5] = system: HCC-827
In short: as §1

[6] = system: LCLC-97TM1
In short: as §1

[7] = system: LK-2
In short: as §1

[8] = system: NCI-H1355
In short: as §1

[9] = system: NCI-H1734
In short: as §1

[10] = system: NCI-H1755
In short: as §1

[11] = system: NCI-H1975
In short: as §1

[12] = system: NCI-H2342
In short: as §1

[13] = system: NCI-H2405
In short: as §1

[14] = system: NCI-H322M
In short: as §1

[15] = system: PC-14
In short: as §1

[16] = system: PC-3 [JPC-3]
In short: as §1

[17] = system: RERF-LC-KJ
In short: as §1

CCN(CC)CCCCNc1ncc2cc(-c3cc(OC)cc(OC)c3)c(NC(=O)NC(C)(C)C)nc2n1 + NC(=O)Nc1cc(-c2cccc(F)c2)sc1C(=O)N[C@H]1CCCNC1 [AZD7762] (partner 0.2 µM)
relative viability ([1]; first compound 0.01 µM): 0.594 | relative viability ([1]; first compound 0.03162 µM): 0.564 | relative viability ([1]; first compound 0.1 µM): 0.796 | relative viability ([1]; first compound 0.3162 µM): 0.758 | relative viability ([1]; first compound 1 µM): 0.641 | relative viability ([2]; first compound 0.03162 µM): 0.585 | relative viability ([2]; first compound 0.1 µM): 0.643 | relative viability ([2]; first compound 0.3162 µM): 0.723 | relative viability ([2]; first compound 1 µM): 0.709 | relative viability ([3]; first compound 0.01 µM): 0.84 | relative viability ([3]; first compound 0.03162 µM): 0.909 | relative viability ([3]; first compound 0.1 µM): 0.911 | relative viability ([3]; first compound 0.3162 µM): 1.11 | relative viability ([3]; first compound 1 µM): 0.855 | relative viability ([4]; first compound 0.01 µM): 1.22 | relative viability ([4]; first compound 0.03162 µM): 1.17 | relative viability ([4]; first compound 0.1 µM): 1.22 | relative viability ([4]; first compound 0.3162 µM): 1.37 | relative viability ([4]; first compound 1 µM): 1.12 | relative viability ([5]; first compound 0.01 µM): 0.222 | relative viability ([5]; first compound 0.03162 µM): 0.249 | relative viability ([5]; first compound 0.1 µM): 0.217 | relative viability ([5]; first compound 0.3162 µM): 0.236 | relative viability ([5]; first compound 1 µM): 0.196 | relative viability ([6]; first compound 0.03162 µM): 0.384 | relative viability ([6]; first compound 0.1 µM): 0.275 | relative viability ([6]; first compound 0.3162 µM): 0.234 | relative viability ([6]; first compound 1 µM): 0.227 | relative viability ([7]; first compound 0.01 µM): 0.471 | relative viability ([7]; first compound 0.03162 µM): 0.394 | relative viability ([7]; first compound 0.1 µM): 0.374 | relative viability ([7]; first compound 0.3162 µM): 0.276 | relative viability ([7]; first compound 1 µM): 0.197 | relative viability ([8]; first compound 0.01 µM): 0.809 | relative viability ([8]; first compound 0.03162 µM): 0.776 | relative viability ([8]; first compound 0.1 µM): 0.766 | relative viability ([8]; first compound 0.3162 µM): 0.801 | relative viability ([8]; first compound 1 µM): 0.515 | relative viability ([9]; first compound 0.01 µM): 0.534 | relative viability ([9]; first compound 0.03162 µM): 0.593 | relative viability ([9]; first compound 0.1 µM): 0.52 | relative viability ([9]; first compound 0.3162 µM): 0.604 | relative viability ([9]; first compound 1 µM): 0.486 | relative viability ([10]; first compound 0.01 µM): 0.429 | relative viability ([10]; first compound 0.03162 µM): 0.546 | relative viability ([10]; first compound 0.1 µM): 0.525 | relative viability ([10]; first compound 0.3162 µM): 0.421 | relative viability ([10]; first compound 1 µM): 0.365 | relative viability ([11]; first compound 0.01 µM): 0.684 | relative viability ([11]; first compound 0.03162 µM): 0.676 | relative viability ([11]; first compound 0.1 µM): 0.776 | relative viability ([11]; first compound 0.3162 µM): 0.818 | relative viability ([11]; first compound 1 µM): 0.601 | relative viability ([12]; first compound 0.01 µM): 0.44 | relative viability ([12]; first compound 0.03162 µM): 0.511 | relative viability ([12]; first compound 0.1 µM): 0.482 | relative viability ([12]; first compound 0.3162 µM): 0.558 | relative viability ([12]; first compound 1 µM): 0.485 | relative viability ([13]; first compound 0.01 µM): 0.792 | relative viability ([13]; first compound 0.03162 µM): 0.734 | relative viability ([13]; first compound 0.1 µM): 0.812 | relative viability ([13]; first compound 0.3162 µM): 0.803 | relative viability ([13]; first compound 1 µM): 0.628 | relative viability ([14]; first compound 0.01 µM): 0.578 | relative viability ([14]; first compound 0.03162 µM): 0.52 | relative viability ([14]; first compound 0.1 µM): 0.59 | relative viability ([14]; first compound 0.3162 µM): 0.728 | relative viability ([14]; first compound 1 µM): 0.559 | relative viability ([15]; first compound 0.01 µM): 0.352 | relative viability ([15]; first compound 0.03162 µM): 0.347 | relative viability ([15]; first compound 0.1 µM): 0.568 | relative viability ([15]; first compound 0.3162 µM): 0.497 | relative viability ([15]; first compound 1 µM): 0.316 | relative viability ([16]; first compound 0.03162 µM): 0.822 | relative viability ([16]; first compound 0.1 µM): 0.756 | relative viability ([16]; first compound 0.3162 µM): 1.03 | relative viability ([16]; first compound 1 µM): 0.639 | relative viability ([17]; first compound 0.01 µM): 0.919 | relative viability ([17]; first compound 0.03162 µM): 1.04 | relative viability ([17]; first compound 0.1 µM): 0.983 | relative viability ([17]; first compound 0.3162 µM): 1.28 | relative viability ([17]; first compound 1 µM): 1.1

COc1nc(C)cnc1NS(=O)(=O)c1cccnc1-c1ccc(-c2nnco2)cc1 [Zibotentan] + NC(=O)Nc1cc(-c2cccc(F)c2)sc1C(=O)N[C@H]1CCCNC1 [AZD7762] (partner 0.2 µM)
relative viability ([1]; first compound 0.08 µM): 0.604 | relative viability ([1]; first compound 0.253 µM): 0.498 | relative viability ([1]; first compound 0.8 µM): 0.526 | relative viability ([1]; first compound 2.53 µM): 0.666 | relative viability ([2]; first compound 0.08 µM): 0.742 | relative viability ([2]; first compound 0.253 µM): 0.648 | relative viability ([2]; first compound 0.8 µM): 0.718 | relative viability ([2]; first compound 2.53 µM): 0.766 | relative viability ([3]; first compound 0.08 µM): 0.901 | relative viability ([3]; first compound 0.253 µM): 0.87 | relative viability ([3]; first compound 0.8 µM): 0.825 | relative viability ([3]; first compound 2.53 µM): 0.799 | relative viability ([4]; first compound 0.08 µM): 1.3 | relative viability ([4]; first compound 0.253 µM): 1.28 | relative viability ([4]; first compound 0.8 µM): 1.18 | relative viability ([4]; first compound 2.53 µM): 1.26 | relative viability ([5]; first compound 0.08 µM): 0.215 | relative viability ([5]; first compound 0.253 µM): 0.183 | relative viability ([5]; first compound 0.8 µM): 0.183 | relative viability ([5]; first compound 2.53 µM): 0.223 | relative viability ([6]; first compound 0.08 µM): 0.433 | relative viability ([6]; first compound 0.253 µM): 0.165 | relative viability ([6]; first compound 0.8 µM): 0.12 | relative viability ([6]; first compound 2.53 µM): 0.253 | relative viability ([7]; first compound 0.08 µM): 0.479 | relative viability ([7]; first compound 0.253 µM): 0.327 | relative viability ([7]; first compound 0.8 µM): 0.441 | relative viability ([7]; first compound 2.53 µM): 0.282 | relative viability ([8]; first compound 0.08 µM): 0.81 | relative viability ([8]; first compound 0.253 µM): 0.858 | relative viability ([8]; first compound 0.8 µM): 0.432 | relative viability ([8]; first compound 2.53 µM): 0.774 | relative viability ([9]; first compound 0.08 µM): 0.629 | relative viability ([9]; first compound 0.253 µM): 0.521 | relative viability ([9]; first compound 0.8 µM): 0.499 | relative viability ([9]; first compound 2.53 µM): 0.55 | relative viability ([10]; first compound 0.08 µM): 0.452 | relative viability ([10]; first compound 0.253 µM): 0.464 | relative viability ([10]; first compound 0.8 µM): 0.387 | relative viability ([10]; first compound 2.53 µM): 0.471 | relative viability ([11]; first compound 0.08 µM): 0.767 | relative viability ([11]; first compound 0.253 µM): 0.626 | relative viability ([11]; first compound 0.8 µM): 0.728 | relative viability ([11]; first compound 2.53 µM): 0.659 | relative viability ([12]; first compound 0.08 µM): 0.556 | relative viability ([12]; first compound 0.253 µM): 0.507 | relative viability ([12]; first compound 0.8 µM): 0.439 | relative viability ([12]; first compound 2.53 µM): 0.517 | relative viability ([13]; first compound 0.08 µM): 0.766 | relative viability ([13]; first compound 0.253 µM): 0.701 | relative viability ([13]; first compound 0.8 µM): 0.654 | relative viability ([13]; first compound 2.53 µM): 0.846 | relative viability ([14]; first compound 0.08 µM): 0.605 | relative viability ([14]; first compound 0.253 µM): 0.551 | relative viability ([14]; first compound 0.8 µM): 0.364 | relative viability ([14]; first compound 2.53 µM): 0.605 | relative viability ([15]; first compound 0.08 µM): 0.445 | relative viability ([15]; first compound 0.253 µM): 0.264 | relative viability ([15]; first compound 0.8 µM): 0.324 | relative viability ([15]; first compound 2.53 µM): 0.369 | relative viability ([16]; first compound 0.08 µM): 0.711 | relative viability ([16]; first compound 0.253 µM): 0.654 | relative viability ([16]; first compound 0.8 µM): 0.733 | relative viability ([16]; first compound 2.53 µM): 0.861 | relative viability ([17]; first compound 0.08 µM): 1.16 | relative viability ([17]; first compound 0.253 µM): 0.938 | relative viability ([17]; first compound 0.8 µM): 0.841 | relative viability ([17]; first compound 2.53 µM): 0.909
